The results in this text go back to patent US8143259B2, “Cold menthol receptor antagonists” (Janssen Pharmaceutica, NV, priority 2008, dated 2012).

“And” between values parts separate entries of the source, which are not always exact repeats. Identical values can stand only once.

The experiment deals with T1, canine TRPM8 (Canis lupus familiaris, UniProt Q1A7N1).
T1 construct: expressed in transfected cells
In words: In Vitro Canine TRPM8 Functional Assay (Ca2+ fluorescence, icilin activation). Format: cell-based. The following applies: for % Inh @ 0.5 μM: 0.5 μM compound; for % Inh @ 0.5 μM / inhibition at 0.2 µM / inhibition at 0.5 µM / % Inh @ 0.2 μM / inhibition at 1 µM / % Inh @ 1 μM: canine TRPM8 HEK293, icilin; for IC50: HEK293 cells stably expressing canine TRPM8, icilin activation, Ca2+ fluorescence; for inhibition at 0.2 µM: HEK293, 0.2 μM compound; for inhibition at 0.5 µM: HEK293, 0.5 μM compound; for % Inh @ 0.2 μM: 0.2 μM compound; for inhibition at 1 µM: HEK293, 1 μM compound; for % Inh @ 1 μM: 1 μM compound. The method, then: The functional activity of compounds of the formula (I) was determined by measuring changes in intracellular calcium concentration using a Ca^2+-sensitive fluorescent dye. The changes in fluorescent signal were monitored by a fluorescence plate reader, either a FLIPR™ (Molecular Devices) or FDSS (Hamamatsu). Increases in intracellular Ca^2+ concentration were readily detected upon activation with icilin.
HEK293 cells stably expressing canine TRPM8 were routinely grown as monolayers in Dulbecco's minimum essential medium supplemented with 10% FBS, 2 mM L-glutamine, 100 units/mL penicillin, 100 ug/mL streptomycin and 400 μg/mL G418. Cells were maintained in 5% CO2 at 37° C. At 24 hrs prior to assay, cells were seeded in black wall, clear-base poly-D-lysine coated 384-well plates (BD Biosciences, NJ, USA) at a density of 5,000 cells per well in culture medium and grown overnight in 5% CO2 at 37° C. On assay day, growth media was removed and cells were loaded with Calcium 3 Dye (Molecular Devices) for 35 min at 37° C., under 5% CO2 and then for 25 min at room temperature and atmosphere. Subsequently, cells were tested for agonist-induced increases in intracellular Ca^2+ levels using FLIPR™ or FDSS. Cells were challenged with compounds of the formula (I) (at varying concentrations) and intracellular Ca^2+ was measured for 5 min prior to the addition of icilin to all wells to achieve a final concentration that produces approximately an 80% maximal response.
Maximal fluorescence intensity (FI) achieved upon addition of icilin was exported from the FLIPR or FDSS software and further analyzed using GraphPad Prism 3.02 (Graph Pad Software Inc., CA, U.S.A.). Basal FI was subtracted prior to normalizing data to percent of maximal response. Curves were generated using the average of quadruplicate wells for each data point, were analyzed using nonlinear regression of either sigmoidal dose response or sigmoidal dose response (variable slope).

As usually defined, the IC50 is the point on the concentration scale where inhibition reaches its midpoint. Read a high IC50 as a need for much substance. As usually defined, the inhibition is the relative decrease from the control value, in per cent.

T1 sequence (Q1A7N1 1-1104): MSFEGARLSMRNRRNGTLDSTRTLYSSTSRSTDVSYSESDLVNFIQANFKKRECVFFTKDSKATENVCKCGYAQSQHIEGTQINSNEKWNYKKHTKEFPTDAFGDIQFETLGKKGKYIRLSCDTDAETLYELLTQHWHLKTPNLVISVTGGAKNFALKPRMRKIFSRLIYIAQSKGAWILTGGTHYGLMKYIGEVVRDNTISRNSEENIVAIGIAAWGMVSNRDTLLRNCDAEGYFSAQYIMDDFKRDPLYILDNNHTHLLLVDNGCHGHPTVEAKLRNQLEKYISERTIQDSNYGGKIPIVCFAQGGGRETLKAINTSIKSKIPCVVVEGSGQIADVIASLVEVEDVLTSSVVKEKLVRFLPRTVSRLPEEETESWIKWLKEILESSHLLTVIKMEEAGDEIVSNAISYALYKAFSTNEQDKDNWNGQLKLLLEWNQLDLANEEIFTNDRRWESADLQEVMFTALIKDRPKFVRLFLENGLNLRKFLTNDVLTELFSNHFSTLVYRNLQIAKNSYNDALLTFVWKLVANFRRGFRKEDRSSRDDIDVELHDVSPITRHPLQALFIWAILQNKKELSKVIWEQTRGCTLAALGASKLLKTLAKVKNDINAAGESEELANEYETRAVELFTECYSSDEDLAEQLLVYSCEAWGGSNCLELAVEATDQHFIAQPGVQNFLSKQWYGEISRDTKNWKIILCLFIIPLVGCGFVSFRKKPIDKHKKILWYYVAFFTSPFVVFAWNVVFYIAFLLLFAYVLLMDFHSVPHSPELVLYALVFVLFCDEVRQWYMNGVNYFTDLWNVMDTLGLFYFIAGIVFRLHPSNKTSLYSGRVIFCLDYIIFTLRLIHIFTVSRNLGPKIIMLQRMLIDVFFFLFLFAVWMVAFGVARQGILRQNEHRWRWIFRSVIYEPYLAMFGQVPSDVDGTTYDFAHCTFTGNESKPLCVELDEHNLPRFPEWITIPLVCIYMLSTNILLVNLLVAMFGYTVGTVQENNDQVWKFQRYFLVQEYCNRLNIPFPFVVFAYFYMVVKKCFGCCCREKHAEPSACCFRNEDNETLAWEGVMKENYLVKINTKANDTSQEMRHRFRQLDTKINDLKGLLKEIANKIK

As to `O=C(C(CNc1ccccc1)c1ccc(C(F)(F)F)cc1)N1CCc2ccccc21` (racemic) [Cpd 40], the “% Inh @ 0.5 μM” value turned out to be 90.495% and the midpoint of inhibition, the IC50, lay at 233 nM. As to `O=C(C(NC1CCCCC1)c1ccc(C(F)(F)F)cc1)N1CCc2ccccc21` (racemic) [Cpd 41], the “% Inh @ 0.5 μM” value is 70.995%. Consider `O=C(C(Nc1ccccc1F)c1ccc(C(F)(F)F)cc1)N1CCCC1c1ccccc1Cl` (racemic) [Cpd 68], for which the inhibition at 0.2 µM amounted to 89%; the inhibition at 0.5 µM is 103%; the IC50 was 7 nM and 12 nM and 13 nM.

Regarding `O=C(C(Nc1ccccc1F)c1ccc(C(F)(F)F)cc1)N1CCCC1c1ccccc1` (racemic) [Cpd 69], the inhibition at 0.5 µM was determined as 102% and half-maximal inhibition (IC50) required 5 nM. Turning to `COc1ccc(C(Nc2ccccc2)C(=O)N2Cc3ccccc3C2)cc1` (racemic) [Cpd 73], the “% Inh @ 0.5 μM” value is on record as 33%.

For the compound `COc1ccccc1C1CCCN1C(=O)C(Nc1ccccc1F)c1ccc(Br)cc1` (racemic) [Cpd 90], the inhibition at 0.5 µM came to 97% and the IC50 amounted to 7 nM. As to `O=C(C(Nc1ccccc1)c1cccnc1)N1Cc2ccccc2C1` (racemic) [Cpd 215], the “% Inh @ 0.2 μM” value turned out to be 18%. For the compound `O=C(C(Nc1ccccc1)c1ccccn1)N1Cc2ccccc2C1` (racemic) [Cpd 216], the “% Inh @ 0.2 μM” value is listed as 32%. Regarding `O=C(C(Nc1ccccc1)c1ccccn1)N1CCCC1c1ccccc1F` (racemic) [Cpd 218], the “% Inh @ 0.2 μM” value (0.2 µM) came out at 49%. As for `Cn1cc(C(Nc2ccccc2F)C(=O)N2CCCC2c2ccccc2F)c2ccccc21` (racemic) [Cpd 250], the “% Inh @ 0.2 μM” value is reported as 25%. As to `O=C(C(Nc1ccccc1F)c1ccc(Br)cc1)N1CCCC1c1cccnc1` (racemic) [Cpd 269], the “% Inh @ 0.2 μM” value turned out to be 47%. Take `O=C(C(Nc1ccccc1F)c1ccc2c(c1)CCO2)N1CCCC1c1cccnc1` (racemic) [Cpd 282]: the “% Inh @ 0.2 μM” value is reported as 17%. With `O=C(C(Nc1ccccc1F)c1cc2cccnc2s1)N1CCCC1c1ccccc1F` (racemic) [Cpd 320], the inhibition at 0.2 µM worked out at 87% and the IC50 came out at 25 nM. Regarding `CN1CCN(NC(=O)[C@H](Nc2ccccc2)c2ccc(C(C)(C)C)cc2)[C@H](c2ccccc2)C1` (relative stereo) [Cpd 56, (2RS*)-2-(4-tert-Butyl-phenyl)-N-[(2RS*)-4-methyl-2-phenyl-piperazin-1-yl]-2-phenylamino-acetamide], the “% Inh @ 0.5 μM” value came out at 26%.

Take `O=C([C@@H](CNc1ccccc1)c1ccc(C(F)(F)F)cc1)N1CCC[C@@H]1c1ccccc1` (relative stereo) [Cpd 130, 3-Phenylamino-1-[(2RS*)2-phenyl-pyrrolidin-1-yl]-(2RS*)-2-(4-trifluoromethyl-phenyl)-propan-1-one]: the “% Inh @ 0.5 μM” value came to 101% and the IC50 turned out to be 36.2 nM.

On to `CC(C)(C)c1ccc(C(Nc2ccccc2)C(=O)N2CCCC2c2ccccc2Cl)cc1` (single isomer, unassigned) [Cpd 1], for which the inhibition at 1 µM was 101% and the IC50 came out at 313 nM. Turning to `CC(C)(C)c1ccc(C(Nc2ccccc2)C(=O)N2CCCC2c2ccccc2Cl)cc1` (single isomer, unassigned) [Cpd 2], the “% Inh @ 1 μM” value is recorded as 100.93% and the IC50 was found to be 72.6 nM.

In the case of `CC(C)(C)c1ccc(C(Nc2ccccc2)C(=O)N2CCCC2c2ccc(Cl)cc2)cc1` (single isomer, unassigned) [Cpd 7], the “% Inh @ 1 μM” value stood at 89.12% and the IC50 amounted to 636 nM. With `CC(C)(C)c1ccc(C(Nc2ccccc2)C(=O)N2CCCC2c2cccc(Cl)c2)cc1` (single isomer, unassigned) [Cpd 8], the inhibition at 1 µM worked out at 86.6% and the midpoint of inhibition, the IC50, lay at 778 nM.

For the compound `CC(C)(C)c1ccc(C(Nc2ccccc2)C(=O)N2CCCC2c2cccc(Cl)c2)cc1` (single isomer, unassigned) [Cpd 9], the “% Inh @ 1 μM” value is 102.98% and the IC50 was 161 nM. Turning to `CC(C)(C)c1ccc(C(Nc2ccccc2)C(=O)N2CCC[C@H]2CNc2ccccc2)cc1` (single isomer, unassigned) [Cpd 10], the inhibition at 1 µM was 102% and the IC50 came to 517 nM. Consider `O=C(C(Nc1ccccc1)c1ccc(C(F)(F)F)cc1)N1CCCC1c1ccccc1Cl` (single isomer, unassigned) [Cpd 21], for which the inhibition at 0.5 µM stood at 103% and the IC50 is 175 nM.

Turning to `O=C(C(Nc1ccccc1)c1ccc(C(F)(F)F)cc1)N1CCCC1c1ccccc1Cl` (single isomer, unassigned) [Cpd 22], the IC50 worked out at 378 nM. In addition, the “% Inh @ 0.5 μM” value (0.5 µM) is given as 102.36%.

For `O=C(C(Nc1ccccc1)c1ccc(C(F)(F)F)cc1)N1CCCC1c1ccccc1Cl` (single isomer, unassigned) [Cpd 23], the IC50 was determined as 17.2 nM. For the same compound, where the note is “0.5 µM”, the “% Inh @ 0.5 μM” value was determined as 103.39%.

Regarding `O=C(C(Nc1ccccc1)c1ccc(C(F)(F)F)cc1)N1CCCC1c1ccccc1C(F)(F)F` (single isomer, unassigned) [Cpd 30], the inhibition at 0.5 µM stood at 103% and the IC50 amounted to 110 nM. In turn, `O=C(C(Nc1ccccc1)c1ccc(C(F)(F)F)cc1)N1CCCC1c1ccccc1C(F)(F)F` (single isomer, unassigned) [Cpd 31] had an IC50 of 48.5 nM. Besides, the “% Inh @ 0.5 μM” value (0.5 µM) is 104.03%.

Regarding `O=C(C(Nc1ccccc1)c1ccc(C(F)(F)F)cc1)N1CCCC1c1ccccc1F` (single isomer, unassigned) [Cpd 45], the inhibition at 0.5 µM was 101% and the midpoint of inhibition, the IC50, lay at 105 nM. With `O=C(C(Nc1ccccc1)c1ccc(C(F)(F)F)cc1)N1CCCC1c1ccccc1F` (single isomer, unassigned) [Cpd 46], half-maximal inhibition (IC50) was put at 7.46 nM. For the setting “0.5 µM”, the “% Inh @ 0.5 μM” value amounted to 101.53%. `O=C(C(Nc1ccccc1)c1ccc(C(F)(F)F)cc1)N1CCCC1c1ccccc1F` (single isomer, unassigned) [Cpd 47]: the IC50 stood at 200 nM. The “% Inh @ 0.5 μM” value (0.5 µM) came out at 99.791%. `O=C(C(Nc1ccccc1)c1ccc(C(F)(F)F)cc1)N1CCCC1c1ccccc1F` (single isomer, unassigned) [Cpd 48] displayed an IC50 of 219 nM. For the same compound, the “% Inh @ 0.5 μM” value (0.5 µM) stood at 85.869%.

Consider `O=C(C(Nc1ccccc1)c1ccc(C(F)(F)F)cc1)N1CCCC1c1ccccc1Cl` (single isomer, unassigned) [Cpd 60], for which the IC50 stood at 41.4 nM. Moreover, the “% Inh @ 0.5 μM” value (0.5 µM) is listed as 103.24%. `O=C(C(Nc1ccccc1)c1ccc(C(F)(F)F)cc1)N1CCCC1c1ccccc1Cl` (single isomer, unassigned) [Cpd 61] registered an IC50 of 168 nM. For the same compound, the “% Inh @ 0.5 μM” value (0.5 µM) is listed as 103.2%.

On to `O=C(C(Nc1ccc(F)cc1)c1ccc(C(F)(F)F)cc1)N1CCCC1c1ccccc1` (single isomer, unassigned) [Cpd 75], for which the inhibition at 0.5 µM was found to be 98% and the IC50 was 20 nM.

Compound `O=C(C(Nc1ccc(F)cc1)c1ccc(C(F)(F)F)cc1)N1CCCC1c1ccccc1` (single isomer, unassigned) [Cpd 76] showed an IC50 of 101 nM. For the same compound, the “% Inh @ 0.5 μM” value (0.5 µM) is 97%. For the compound `O=C(C(Nc1ccccc1F)c1ccc(C(F)(F)F)cc1)N1CCCC1c1cccc(F)c1` (single isomer, unassigned) [Cpd 133], the inhibition at 0.5 µM came to 98% and the IC50 turned out to be 20.9 nM. As to `O=C([C@@H](Nc1ccccc1F)c1ccc(C(F)(F)F)cc1)N1CCC[C@H]1c1ccccc1F` (single isomer, unassigned) [Cpd 152], the inhibition at 0.5 µM turned out to be 101% and the IC50 came to 61.3 nM. Turning to `O=C(C(Nc1ccccc1F)c1ccc(C(F)(F)F)cc1)N1CCCC1c1ccccc1F` (single isomer, unassigned) [Cpd 154], the IC50 is 104 nM. The “% Inh @ 0.5 μM” value (0.5 µM) was found to be 97.552%. Regarding `O=C(C(Nc1ccccc1F)c1ccc(Cl)cc1)N1CCCC1c1ccccc1F` (single isomer, unassigned) [Cpd 157], the inhibition at 0.5 µM stood at 93% and the midpoint of inhibition, the IC50, lay at 146 nM. With `O=C(C(Nc1ccccc1F)c1ccc(Br)cc1)N1CCCC1c1ccccc1F` (single isomer, unassigned) [Cpd 159], the inhibition at 0.2 µM came to 97%; the inhibition at 0.5 µM is 94%; the IC50 was 109 nM and 38 nM. Regarding `O=C(C(Nc1ccccc1F)c1ccc(Br)cc1)N1CCCC1c1ccccc1F` (single isomer, unassigned) [Cpd 160], the IC50 is 39 nM and 13 nM. In addition, the “% Inh @ 0.2 μM” value (0.2 µM) stood at 87%. The “% Inh @ 0.5 μM” value (0.5 µM) was 95%. In the case of `O=C(C(Nc1c(F)cccc1F)c1ccc(Br)cc1)N1CCCC1c1ccccc1F` (single isomer, unassigned) [Cpd 161], the inhibition at 0.2 µM was found to be 98%; the inhibition at 0.5 µM turned out to be 93%; the IC50 is 63 nM and 36 nM.
